The source of these data is ChEMBL document CHEMBL1152022, “Double-headed molecules based on linear or angular psoralen and -methylene--butyrolactone: a search for non-phototoxic potential antiproliferative compounds” (Bioorg Med Chem Lett, 1993).

Calls of active or inactive are those of the source. No cut-off for these calls is given here.

What all share (format): functional, organism-based
Assay [1] is filed under the species Mus musculus. In words: Phototoxicity was evaluated at a concentration of 13.9 mM and a UVA dose of 10 J/cm**2 in mouse ear-swelling test; non-phototoxic.
The species entered for assay [2] is Mus musculus. In words: Phototoxicity was evaluated at a concentration of 1.4 mM and with an irradiation dose of 6 J/cm**2 in mouse ear-swelling test; non-phototoxic.
Assay [3] is filed under the species Mus musculus. In words: Phototoxicity was evaluated at a concentration of 27.7 mM at a UVA dose of 12 J/cm**2 in mouse ear-swelling test; non-phototoxic.
For assay [4], the species on record is Mus musculus. The assay can be described thus: Phototoxicity was evaluated at a concentration of 1.4 mM and with an irradiation dose of 6 J/cm**2 in mouse ear-swelling test; induced marked erythema.

`C=C1CC(CCCCCCCCCCc2cc3c(ccc4ccc(=O)oc43)o2)OC1=O` (centres undefined): in the assay filed under Mus musculus [1], the Phototoxicity entry was “Not toxic”.

`C=C1CC(CCCCCCCCCCOc2c3ccoc3cc3oc(=O)ccc23)OC1=O` (centres undefined): the Phototoxicity entry in the assay filed under Mus musculus [2] and in the assay listed under Mus musculus [3] was “Not toxic” throughout.

Regarding `COc1c2ccoc2cc2oc(=O)ccc12`, the Phototoxicity entry in the assay filed under Mus musculus [4] is “Active”.
